# Test results reported in patent US9315543B2, “Tyrosine based linkers for the releasable connection of peptides” (Bayer Intellectual Property GmbH, priority 2011, dated 2016).
# Experiment: Cleavage kinetics (stability) of tyrosine based linker derivatives in buffer at pH 4 and pH 7.4, HPLC
# Type: physicochemical
# Conditions: room temperature; for % cleaved pH 4, 0 h / % cleaved pH 4, 24 h: pH 4 solution/acetonitrile; for % cleaved pH 4, 0 h / % cleaved pH 4, 24 h / % cleaved pH 7.4, 0 h / % cleaved pH 7.4, 6 h / % cleaved pH 7.4, 24 h: HPLC peak area; for % cleaved pH 7.4, 0 h / % cleaved pH 7.4, 6 h / % cleaved pH 7.4, 24 h: pH 7.4 buffer/acetonitrile; for cleavage kinetic (in words): summary of Table 1, pH 4 and pH 7.4, up to 24 h
# Text: To illustrate the different kinetics of different linkers, simple derivatives of the tyrosine based molecule were synthesized and the cleavage at different time points in buffer at pH 4 and pH 7.4 were monitored. Based on the exact composition of the tyrosine based linker structure the formation of the cyclic urea with concomittant release of the free tyrosine OH group has different cleavage kinetics. These can be easily measured in vitro and used as predictors for the in vivo kinetics.
# For the kinetic studies with regard to the stability of the different linkers 0.3 mg of the dry test compound are dissolved in 0.5 ml acetonitrile. For a better dilution the sample is sonified for about 10 seconds. Then 1.0 ml of the buffer solutions are added and the samples are sonified again.
# Chemical composition of the solution/buffer which are used: • pH 4: 1 liter of deionized water was adjusted to pH 4 with 1N hydrochloric acid • pH 7.4: 90 g sodium chloride, 13.61 g potassium dihydrogene phosphate and 83.35 g 1 M sodium hydroxide solution were dissolved in 1 liter of deionized water. This solution was diluted with water at the rate of 1:10.
# The test compound concentration is analysed by HPLC every hour during 24 hours at room temperature. The quantity of the test compound is determined by the peak areas.
# HPLC method: Agilent 1100 with DAD (G1315B), binary pump (g1312A), autosampler (G1329A), column thermostat (G1330B), Column: Kromasil 100 C18/250 mm×4 mm/5 μm, Column temperature: 30° C., Eluent A: water+5 ml perchloric acid/1, Eluent B: acetonitrile, Gradient: 0-1.0 min 90% A, 10% B; 1.0-20.0 min 10% A, 90% B; 20.0-21.0 min 10% A, 90% B; 21.0-23.0 min 90% A, 10% B; 23.0-25.0 min 90% A, 10% B; Flow rate: 1.5 ml/min, Detection: 210 nm, Injection volume: 10 μl.
SMILES,"% cleaved pH 4, 0 h [%]","% cleaved pH 4, 24 h [%]","% cleaved pH 7.4, 0 h [%]","% cleaved pH 7.4, 6 h [%]","% cleaved pH 7.4, 24 h [%]",cleavage kinetic (in words)
NC[C@H](NC(=O)Oc1ccc(C[C@H](N)C(=O)Nc2ccccc2)cc1)C(=O)N[C@@H](CSC1CC(=O)N(Cc2ccccc2)C1=O)C(N)=O (stereo partly shown) [Example 11C],0,19,0,100,100,"cleaved very quickly, even at pH4"
NCC[C@H](NC(=O)Oc1ccc(C[C@H](N)C(=O)Nc2ccccc2)cc1)C(=O)N[C@@H](CSC1CC(=O)N(Cc2ccccc2)C1=O)C(N)=O (stereo partly shown) [Example 5C],0,0,0,75,100,cleaved quickly
NC(=O)[C@H](CSC1CC(=O)N(Cc2ccccc2)C1=O)NC(=O)CNC(=O)[C@@H](N)CCNC(=O)Oc1ccc(C[C@H](N)C(=O)Nc2ccccc2)cc1 (stereo partly shown) [Example 8C],0,0,0,6,23,–
NC(=O)[C@H](CSC1CC(=O)N(Cc2ccccc2)C1=O)NC(=O)CCCCCNC(=O)[C@@H](N)CCNC(=O)Oc1ccc(C[C@H](N)C(=O)Nc2ccccc2)cc1 (stereo partly shown) [Example 9C],0,0,0,7,25,–
NC(=O)[C@H](CSC1CC(=O)N(Cc2ccccc2)C1=O)NC(=O)[C@@H](N)CCCNC(=O)Oc1ccc(C[C@H](N)C(=O)Nc2ccccc2)cc1 (stereo partly shown) [Example 3C],0,0,0,2,11,cleaved slowly
"NC(=O)[C@H](CSC1CC(=O)N(Cc2ccccc2)C1=O)NC(=O)[C@@H](N)CCNC(=O)Oc1ccc(C[C@H](N)C(=O)Nc2ccccc2)cc1 (stereo partly drawn) [Example 1C, O-{[(3S)-3-Amino-4-({(2R)-1-amino-3-[(1-benzyl-2,5-dioxopyrrolidin-3-yl)sulfanyl]-1-oxopropan-2-yl}amino)-4-oxobutyl]carbamoyl}-N-phenyl-L-tyrosinamide]",0,1,0,7,21,–
NC(=O)CNC(=O)[C@H](CSC1CC(=O)N(Cc2ccccc2)C1=O)NC(=O)[C@@H](N)CCNC(=O)Oc1ccc(C[C@H](N)C(=O)Nc2ccccc2)cc1 (stereo partly shown) [Example 7C],0,0,0,6,23,–
N[C@@H](CCNC(=O)Oc1ccc(C[C@H](N)C(=O)Nc2ccccc2)cc1)C(=O)NCCSC1CC(=O)N(Cc2ccccc2)C1=O (stereo partly shown) [Example 6C],0,0,0,6,20,–
N[C@@H](Cc1ccc(OC(=O)NCC[C@H](N)C(=O)N[C@@H](CSC2CC(=O)N(Cc3ccccc3)C2=O)C(=O)Nc2ccccc2)cc1)C(=O)Nc1ccccc1 (stereo partly shown) [Example 12C],0,0,0,29,76,cleaved quickly
NCCC[C@H](NC(=O)Oc1ccc(C[C@H](N)C(=O)Nc2ccccc2)cc1)C(=O)N[C@@H](CSC1CC(=O)N(Cc2ccccc2)C1=O)C(N)=O (stereo partly shown) [Example 4C],0,0,0,23,65,cleaved quickly
"N[C@@H](CCNC(=O)Oc1ccc(C[C@H](N)C(=O)Nc2ccccc2)cc1)C(=O)NCCOCCOCCOCCn1cc(-c2ccccc2)nn1 [Example 10Cb, O-{[(14S)-14-Amino-13-oxo-1-(4-phenyl-1H-1,2,3-triazol-1-yl)-3,6,9-trioxa-12-azahexadecan-16-yl]carbamoyl}-N-phenyl-L-tyrosinamide]",0,0,0,4,14,cleaved slowly
